Reference: the METLIN SMRT retention time set (Domingo-Almenara et al. 2019)

Experiment: gradient 5% acetonitrile 3 min, to 50% in 2 min, to 85% in 15 min, held 3 min, 100 µL/min
Conditions: column: Zorbax Extend-C18 2.1 x 50 mm; eluents: water / acetonitrile, 0.1% formic acid
In short: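 Over 3 months, pure standards in mixtures of ~100 molecules were run by HPLC coupled to a quadrupole time-of-flight mass spectrometer in positive and negative ionization mode. The column was a Zorbax Extend-C18 (2.1 × 50 mm, 1.8 μm) at 100 μL/min, eluted with water and acetonitrile each holding 0.1% formic acid, with 40 μL dead and 900 μL dwell volumes. Retention time was determined from adduct peaks chosen by software and checked manually.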

| Compound | RP-LC retention time |
| --- | --- |
| CCn1cc(-c2nc(C(=O)Nc3ccc(F)cc3C)cs2)c2cccnc21 | 1000 s |
| Cc1ccc(C(=O)CC2(O)C(=O)Nc3ccccc32)cc1C (stereo unspecified) | 751 s |
| COC(=O)Nc1csc2c1NC(=O)CCCC2 | 716 s |
| CCN(CCCNC(=O)C1CCCN(c2ncnc3c2nc2n3CCCCC2)C1)c1cccc(C)c1 (stereo unspecified) | 647 s |
| COc1cccc(Cn2c(=O)c3sccc3n(Cc3nc(-c4ccc(C)c(C)c4)no3)c2=O)c1 | 1200 s |
| CC(C(=O)NCCCN1CCCCC1)n1ccc2cc(S(=O)(=O)N3CCCCCC3)ccc21 (stereo unspecified) | 707 s |
| COc1ccc(-c2nnc3sc(COc4ccc(Br)cc4)nn23)cc1 | 1060 s |
| O=C(c1nccc2ccccc12)N1CCC(Nc2ncnc3c2CCC3)C1 (stereo unspecified) | 537 s |
| O=C(c1csc(-c2cccnc2)n1)N1CCN(c2ncccn2)CC1 | 648 s |
| COc1ccc(NS(=O)(=O)c2cn(C(C)C)c3ncccc23)cc1OC | 876 s |
| CCOC(=O)c1sc(NC(=O)CC(C)C)nc1-c1ccccc1 | 1050 s |
| COc1ccc2[nH]cc(CCNC(=O)C(C)C3CCN(S(=O)(=O)c4c(C)noc4C)CC3)c2c1 (stereo unspecified) | 831 s |
| CCOC(=O)N1CCN(c2cc(-c3nc(-c4cccc(OC)c4OC)no3)c3ccccc3n2)CC1 | 1250 s |
| O=C(COc1ccccc1-c1nnc(-c2ccccc2)o1)Nc1ccc2c(c1)OCO2 | 1100 s |
| COc1ccc(-c2noc(C3CC(=O)N(c4ccc5c(c4)OCO5)C3)n2)cc1 (stereo unspecified) | 881 s |
| Cc1cc(NC(=O)CSc2nnc(NC(=O)c3ccc4c(c3)OCO4)s2)no1 | 727 s |
| CCc1ccc(NC(=O)N2CCc3nc(-c4ccc(F)cc4)ncc3C2)cc1 | 1040 s |
| COc1ccc(N2CCN(c3cc(SCC(=O)Nc4cccc(Cl)c4)ncn3)CC2)cc1 | 1030 s |
| Cc1oc(-c2ccc(NC(=O)C3CCCCC3)cc2)nc1Cn1cccn1 | 924 s |
| Cn1cc(-c2ccncc2)cc1C(=O)N1CCN(c2ccc(Cl)cc2)CC1 | 682 s |
| O=C(CC1CCOC2(CCN(Cc3cccs3)CC2)C1)NC1CC1 (stereo unspecified) | 578 s |
| CC(=O)c1cccc(NC(=O)Nc2cccc(-c3ccc(N4CCOCC4)nn3)c2)c1 | 655 s |

Second part, the molecule after the results:

| RP-LC retention time | Compound |
| --- | --- |
| 1030 s | Cc1ccc(-c2noc(C3CCCN3C(=O)c3ccccc3F)n2)cc1 (stereo unspecified) |
| 777 s | O=C(NC1CCN(c2cc(-c3ccc(F)cc3)[nH]n2)C1)c1ccc(Cl)cc1 (stereo unspecified) |
| 932 s | CN(C)S(=O)(=O)c1ccc2c(c1)N(CC(=O)NCc1ccc(Cl)cc1)C(=O)C1CCCCN21 (stereo unspecified) |
| 822 s | Cc1ccccc1NS(=O)(=O)c1cc2c(s1)CCN(C(=O)C1CC1)C2 |
| 712 s | CCN(CC)c1ccc(-c2nc3ncccn3c2NCc2ccccc2)cc1 |
| 856 s | Cc1cc(F)ccc1N1C(=O)CN(S(C)(=O)=O)CC1(C)C(=O)NCc1ccc(Cl)cc1 (stereo unspecified) |
| 693 s | Cc1oc(-c2[nH]ncc2C(=O)N(C)C)cc1S(=O)(=O)NCc1ccccc1Cl |
| 772 s | CCOC(=O)N1CCC(NC(=O)Cn2cc(-c3ccc(C)cc3)oc2=O)CC1 |
| 876 s | Cc1ccc(S(=O)(=O)NC2CCN(c3ccccc3)C2=O)cc1 (stereo unspecified) |
| 701 s | COc1ccc(-c2nc3ccccn3c2Nc2ccc(C)cc2)cc1 |
| 886 s | CCOC(=O)C1=C(CNc2ccc(F)cc2F)NC(=O)NC1c1ccccc1 (stereo unspecified) |
| 946 s | Cc1ccc(NC(=O)Cn2c(=O)n(-c3ccc(F)cc3)c(=O)c3c2cc(C)n3C)cc1Cl |
| 1040 s | CC(C)c1ccc(N2C=C(C(=O)N3CCCCC3)S(=O)(=O)c3ccccc32)cc1 |
| 706 s | N#Cc1cccc(S(=O)(=O)NC2CCc3nn(CC4CC4)c(=O)n3CC2)c1 (stereo unspecified) |
